# In patent US5747545A, “Method of preventing NMDA receptor complex-mediated Neuronal damage” (priority 1995, dated 1998):
# “Also recorded” adds a separate entry of the source.
# Experiments:
# [1] = test system: NMDA receptor (rat cortical neurons in culture); test: Digital fura-2 imaging of NMDA-evoked intracellular [Ca2+] in cultured cortical neurons; assay type: cell-based, rat (Sprague-Dawley); conditions: 50 μM NMDA; Examples 1-2; NTG 100 μM in Example 2
# Description: The concentration of intracellular free Ca^2+ ([Ca^2+ ]i) is measured in neonatal cortical neurons by digital imaging microscopy with the Ca^2+ sensitive fluorescent dye fura 2, as follows. The same cortical neuronal cultures as described above are used. During Ca^2+ measurements, unless otherwise stated the fluid bathing the neurons consists of Hanks' balanced salts: 137.6 mM NaCl, 1 mM NaHCO3, 0.34 mM Na2 HPO4, 0.44 mM KH2 PO4, 5.36 mM KCl, 1.25 mM CaCl2, 0.5 mM MgSO4, 0.5 mM MgCl2, 5 mM Hepes NaOH, 22.2 mM glucose, and sometimes with phenol red indicator (0.001% v/v); pH 7.2. NMDA (in the absence Mg^++), glutamate, and other substances are usually applied to the neurons by pressure ejection after dilution in this bath solution. Neuronal [Ca^2+ ]i is analyzed with fura 2-acetoxy-methyl ester (AM) as described [Grynkiewicz, et al., J. Biol. Chem. 260:3440 (1985); Williams et al., Nature 318:558 (1985); Connor et al., J. Neurosci. 7:1384 (1987); Connor et al., Science 240:649 (1988); Cohan et al., J. Neurosci. 7:3588 (1987); Mattson, et al., ibid, 9:3728 (1989)]. After adding Eagle's minimum essential medium containing 10 μM fura 2-AM to the neurons, the cultures are incubated at 37° C. in a 5% CO2 /95% air humidified chamber and then rinsed. The dye is loaded, trapped, and deesterified within 1 hour, as determined by stable fluorescence ratios and the effect of the Ca^2+ ionophore ionomycin on [Ca^2+ ]i is measured. During Ca^2+ imaging, the cells are incubated in a solution of Hepes-buffered saline with Hanks' balanced salts. The [Ca^2+ ]i is calculated from ratio images that are obtained by measuring the fluorescence at 500 nm that is excited by 350 and 380 nm light with a DAGE MTI 66 SIT or QUANTEX QX-100 Intensified CCD camera mounted on a Zeiss Axiovert 35 microscope. Exposure time for each picture is 500 ms. Analysis is performed with a Quantex (Sunnyvale, Calif.) QX7-210 image-processing system. Since cells are exposed to ultraviolet light only during data collection (generally less than a total of 20 s per cell), bleaching of fura 2 is minimal.
# In this experiment, the effect of NTG on intracellular [Ca^++ ] increases induced by NMDA were followed using digital [Ca^++ ] imaging techniques, based on the dye fura-2.
# Specifically, the model for NMDA-mediated neurotoxicity involves exposure of cultured rat cortical neurons to NMDA in the presence of glycine (a co-agonist).
# Cortical cultures were derived from embryonic (fetal day 15 or 16) Sprague-Dawley rats as described previously (Dichter, 1978; Rosenberg and Aizenman, 1989). […]
# [2] = test system: cerebral cortical infarct (rat pups); test: Bilateral carotid ligation plus hypoxia stroke model in rat pups pretreated with NTG patches; assay type: in vivo
# Description: Rat pups were treated with nitroglycerin (NTG) approximately for 36-48 hours before performing bilateral carotid ligations. The dosing regimen for the 3 groups of rat pups used to generate the data was as follows.
# Hair was removed from the abdominal region of the rat pup using a razor. One-quarter of a NTG patch (Minitran) was applied to the shaved area. A quarter patch of this size corresponds to a dose of 0.6 mg/24 hours (whole patch 2.4 mg/24 hr). Between 12 and 16 hours later, another quarter-patch was applied to the rat's abdomen, leaving the first on. This procedure was again repeated 12-16 hours later. Each rat pup received 3 or 4 quarter patches before surgery, which was performed two days later and consisted of bilateral carotid ligation followed by hypoxia to induce a stroke.
# Using this procedure of inducing NTG systemic tolerance, the following results were obtained: In the control group, 7/11 (64%) of the animals suffered large ([…]) cerebral cortical infarcts. In contrast, in the NTG-treated group, only 2/13 (15%) of the animals had any discernible cerebral infarct at all (P<0.03 by Fisher's exact test).
# Animals are operated on (to induce a stroke) approximately 48 hr after the initial administration of NTG patches.
# [3] = test system: NMDA receptor (cortical neurons); test: Patch-clamp recording of NMDA-evoked current in cortical neurons; assay type: cell-based, rat (Sprague-Dawley)
# [4] = intravenous NTG, human; cited from earlier work
smiles,measurement,setting,value
"O=[N+]([O-])OCC(CO[N+](=O)[O-])O[N+](=O)[O-] [NTG, 1,2,3-propanetriol trinitrate]",Effect on NMDA-evoked [Ca2+]i response,[1],persistently decreased the NMDA-evoked [Ca^2+ ]i response
same,Animals with any discernible cerebral infarct (number/total),"[2]; NTG patches approx. 36-48 h before bilateral carotid ligation, control 7/11 (64%) large infarcts, P<0.03 Fisher's exact test",2/13
same,Animals with any discernible cerebral infarct (percent),"[2]; NTG patches approx. 36-48 h before bilateral carotid ligation, control 64%, P<0.03",15%
same,Cerebral protection,"[2]; NTG transdermal patches, tolerance-inducing procedure",cerebral protective
same,Effect on NMDA-evoked current,"[3]; 50 μM NMDA + 1 μM glycine, -60 mV, DTT 2 mM, NTG 500 μM, DTNB 500 μM, 2 min exposure, washout, FIG. 4",attenuated; also recorded: inhibited the responses
same,Effect on amplitude of NMDA evoked current following alkylation with NEM,[3]; after 1-5 mM NEM,neither NTG nor DTNB significantly affected the amplitude of NMDA evoked current
same,"Time to systemic tolerance, intravenous continuous infusion",[4],18 to 24 h
